The results in this text go back to ChEMBL document CHEMBL5625217, “New bysspectin A derivatives as potent inhibitors of human carboxylesterase 2A” (Eur J Med Chem, 2023).

Series [1] in a line: Inhibition of human CES2A using fluorescein diacetate as fluorescent substrate preincubated for 3 mins followed by substrate addition and measured after 30 mins by fluorescence based analysis.
Series [2] in a line: Metabolic stability in human liver microsomes assessed as half life at 10 uM preincubated for 3 mins followed by UDPGA addition and measured upto 120 mins by HPLC analysis. Conditions: time < 123 min. The class given is ADME, Microsome. Background: Liver microsomes are vesicles of endoplasmic reticulum, rich in cytochrome P450 enzymes.
The nature of series [3]: Inhibition of human CES1A using NLMe as substrate preincubated for 3 mins followed by substrate addition and measured after 20 mins by Spectra max microplate reader analysis.
Series [4] in a line: Metabolic stability in human liver microsomes assessed as half life at 10 uM preincubated for 3 mins followed by NADPH addition and measured upto 120 mins by HPLC analysis. The class given is ADME, Microsome. Conditions: time < 123 min.
For the next series, the species on record is Homo sapiens. The series can be described thus: Selectivity ratio of IC50 for human CES1A to IC50 for human CES2A.
Series [5] can be described thus: Binding affinity to human CES2A assessed as inhibition constant using fluorescein diacetate as fluorescent substrate preincubated for 3 mins followed by substrate addition and measured after 30 mins by Lineweaver-Burk plot analysis.
The test system of the next series is HepG2. As to the kind of experiment: Cytotoxicity against human HepG2 cells assessed as reduction in cell viability at 10 uM measured after 24 hrs by CCK-8 method. The following applies: hepg2, 24 h. The class given is toxicity, cell-based.
Series [6] can be described thus: Inhibition of intracellular CES2A in human HepG2 cells assessed as reduction in NCEN hydrolysis incubated for 1 hr. The class given is cell-based.

A word on the IC50: it is the concentration at which inhibition is half-maximal. `CCCCCCCCC(=O)c1cccc(O)c1-c1cc2ccccc2o1`: the IC50 in series [1] was 230 nM.

For the molecule `CCCCCCCCC(=O)c1cccc2oc(-c3cc(C)ccc3O)cc12`, the half-inhibitory concentration (IC50) in series [1] came to 54 nM.

Turning to `CCCCCCC(=O)c1cccc2oc(-c3ccccc3C(=O)O)cc12`, the 50% inhibitory concentration (IC50) in series [1] is 360 nM.

The term half-life denotes how long it takes for the measured level to halve. Regarding `O=c1ccc2ccc(O)cc2o1` [UMBELLIFERONE], the half-life at 10 µM in series [2] amounted to 18.2 min.

In series [1], `CCCCCCCCC(=O)c1cccc(O)c1-c1cc2ccc(OC)cc2o1` displayed an IC50 of 190 nM.

On to `CCCCCCCCC(=O)c1cccc2oc(-c3ccc(C)cc3C(=O)OC)cc12`, for which, in series [1], the IC50 turned out to be 310 nM.

Turning to `CCCCCCCCC(=O)c1cccc2oc(-c3cc(OC)ccc3O)cc12`, the 50% inhibitory concentration (IC50) was 22 nM in series [1] and 2.61 µM in series [3].

`CCCCCCCCC(=O)c1cccc(OC)c1-c1cc2c(C(=O)CCCCCCCC)cccc2o1` had an IC50 in series [1] of 600 nM.

The molecule `CCCCCCCCC(=O)c1cccc(O)c1-c1cc2cc(C)ccc2o1` gave a 50% inhibitory concentration (IC50) in series [1] of 84 nM.

Consider `CCCCCCCCC(=O)c1cccc2oc(-c3ccccc3C(=O)O)cc12`, for which, in series [1], 130 nM corresponded to half-maximal inhibition (IC50).

With `CCCCCCCCC(=O)c1cccc(O)c1-c1cc2c(C(=O)CCC)cccc2o1`, in series [1], the 50% inhibitory concentration (IC50) is 120 nM.

Molecule `CCCCCCCCC(=O)c1cccc2oc(-c3c(O)cccc3C(=O)CCC)cc12` came in with an IC50 in series [1] of 29 nM.

As to `CCCCCCCCC(=O)c1cccc2oc(-c3ccccc3)cc12`, inhibition in series [1] was half-maximal at 5410 nM (IC50).

`CCCCCCC(=O)c1cccc2oc(-c3cc(OCC)ccc3O)cc12` displayed a half-inhibitory concentration (IC50) in series [1] of 9 nM.

In series [1], `CCCCCCC(=O)c1cccc2oc(-c3cc(C(=O)OC)ccc3O)cc12` returned an IC50 of 35 nM.

In the case of `CCCCCCCCC(=O)c1cccc2oc(-c3ccccc3C(=O)OC)cc12`, half-maximal inhibition in series [1] (IC50) required 100 nM.

In series [1], `CCCCCCCCC(=O)c1cccc(OC(C)=O)c1-c1cc2c(C(=O)CCCCCCCC)cccc2o1` displayed an IC50 of 690 nM.

Turning to `CCCCCCCCC(=O)c1cccc(O)c1-c1cc2c(C(=O)CCCCCCCC)cccc2o1`, half-maximal inhibition in series [1] (IC50) was put at 1090 nM.

The molecule `CCCCCCC(=O)c1cccc2oc(-c3cc(C(F)(F)F)ccc3O)cc12` had an IC50 in series [1] of 20 nM.

In the case of `C[C@]12CC[C@H]3[C@@H](CCC4=CC(=O)CC[C@@]43C)[C@@H]1CC[C@@H]2O` [TESTOSTERONE], in series [4], the half-life at 10 µM came to 27.6 min.

`CN(C)C(=O)C(CCN1CCC(O)(c2ccc(Cl)cc2)CC1)(c1ccccc1)c1ccccc1` [LOPERAMIDE]: half-maximal inhibition in series [1] (IC50) was put at 350 nM.

The molecule `CCCCCCC(=O)c1cccc2oc(-c3cc(C(=O)O)ccc3O)cc12` returned an IC50 in series [1] of 200 nM.

For `CCCCCCC(=O)c1cccc2oc(-c3cc(OC)ccc3O)cc12`, in series [1], half-maximal inhibition (IC50) required 8 nM.

Turning to `CCCCCCCCC(=O)c1cccc2oc(-c3ccc(OC)cc3O)cc12`, the midpoint of inhibition in series [1], the IC50, lay at 140 nM.

Consider `CCCCCCC(=O)c1cccc2oc(-c3ccc(C)cc3C(=O)O)cc12`, for which it took 490 nM to reach half-maximal inhibition in series [1] (IC50).

`CCCC(=O)c1cccc2oc(-c3cc(OC)ccc3O)cc12` returned an IC50 in series [1] of 21 nM.

In series [1], `CCCCCCC(=O)c1cccc2oc(-c3ccc(C)cc3C(=O)OC)cc12` showed an IC50 of 300 nM.

Turning to `CCCCCCCCC(=O)c1cccc2oc(-c3c(O)cccc3C(=O)CCCCCC)cc12`, the IC50 in series [1] amounted to 54 nM.

Regarding `CCCCCCCCC(=O)c1cccc2oc(-c3ccc(C)cc3C(=O)O)cc12`, the half-inhibitory concentration (IC50) in series [1] amounted to 110 nM.

For the molecule `CCCCCCCCC(=O)c1cccc(O)c1-c1cc2cc(OC)ccc2o1`, in series [1], the midpoint of inhibition, the IC50, lay at 100 nM.

In series [1], `CCCCCCC(=O)c1cccc2oc(-c3ccccc3C(=O)OC)cc12` returned an IC50 of 250 nM.

`CCCCCCCCC(=O)c1cccc2oc(-c3ccccc3O)cc12`: the IC50 in series [1] turned out to be 32 nM.

In general, Ki refers to the dissociation constant of the complex between target and ligand, obtained from inhibition or displacement. For the molecule `CCCCCCC(=O)c1c(C)ccc2oc(-c3cc(OC)ccc3O)cc12`, the half-inhibitory concentration (IC50) in series [1] was 2 nM; in series [3], 7.26 µM; in series [6] (Homo sapiens, HepG2, 1 h, read-out: IC50), 52 nM; in series [6] (hepg2), “Dose-Dependent Effect”. Also, in the series listed under Homo sapiens, the Ratio IC50 turned out to be 4540. For the same molecule, the Ki in series [5] was 1.4 nM. For the same molecule, the Activity entry in the series on HepG2 is “Non-Toxic”. For the same molecule, the figures for the half-life at 10 µM in series [4] and in series [2] were 126 min and 97.4 min, respectively.

`CCCCCCCCC(=O)c1cccc(O)c1-c1cc2c(C(=O)CCCCCC)cccc2o1` came in with a half-inhibitory concentration (IC50) in series [1] of 58 nM.
